# Results from US9883999B2, “Method for solubilizing rutin with polyhydroxy alkyl alcohols” (Colgate-Palmolive Company, priority 2013, dated 2018).
# Tests used:
# [1] = system: exfoliated human oral mucosal cells; assay: Protective (anti-oxidation) efficacy of rutin solutions by cell staining method (Janus Green B, H2O2/Fe2+ challenge); format: cell-based; conditions: larger ΔE*a,b = stronger protection
# Protocol: Rutin is dissolved in water to prepare a range of different levels of rutin solution. The protective efficacy of rutin solutions is measured using a cell staining method. In this method, the morphology of exfoliated human oral mucosal cells contacted with various concentrations of rutin is disclosed with Janus Green B dye. Photographic digital images are obtained using a light microscope with a 40× or 100× objective lenses connected to a digital camera. The color difference between the cell plasma and the area outside the cell, ΔE*a,b, is determined using the CIE L*a*b* system. The larger the ΔE*a,b value, the stronger the protective efficacy. The method includes the following steps: • 1. Human mucosal cells are collected and mixed with 1 mL Ringer solution, 0.5 mL Fe^2+ and 0.5 mL HAc—Ac buffer in a 5 mL Eppendorf tube. • 2. The cell suspension is then equally divided into two tubes. To the first tube is added 0.2 mL of 20 mM H2O2. To the second tube is added 0.2 mL Ringer solution. • 3. After 10 min, one drop of the above treated samples is placed on a microscope slide and stained with one drop of 0.1% Janus Green B for 1 h or longer. • 4. After staining, the cells are observed under the light microscope. Digital images are also acquired and ΔE*a, b is measured.
# [2] = Initial evaluation of solubilizing agents for rutin by relative clarity of the solutions; format: physicochemical; conditions: 0.5% rutin added to 10 g of each test solubilizer; propylene glycol best, sorbitol worst
structure (smiles),measurement,setting,value
"C[C@@H]1O[C@@H](OC[C@H]2O[C@@H](Oc3c(-c4ccc(O)c(O)c4)oc4cc(O)cc(O)c4c3=O)[C@H](O)[C@@H](O)[C@@H]2O)[C@H](O)[C@H](O)[C@H]1O [rutin, 2-(3,4-dihydroxyphenyl)-5,7-dihydroxy-3-[α-L-rhamnopyranosyl-(1→6)-β-D-glucopyranosyloxy]-4H-chromen-4-one]","Protective efficacy (ΔE*a, b)",[1]; rutin concentration 0.5 mM in water,5.5
same,"Protective efficacy (ΔE*a, b)",[1]; rutin concentration 1.0 mM in water,24.7
same,"Protective efficacy (ΔE*a, b)",[1]; rutin concentration 2.0 mM in water,38.9
same,"solubility capability of the humectants, ranked",[2],propylene glycol>>glycerin>PEG600≈PEG-40 hydrogenated castor oil>sorbitol
